The values that follow come from PubChem BioAssay AID268 (DTP/NCI, 2004).

Broadly, the T/C is the result in the treated group divided by that in the control group, in per cent.

The subject of the test is CD2F1 mice, P1798 lymphosarcoma sc, tumor weight T/C. Kind of test: NCI In Vivo Anticancer Drug Screen. Data for tumor model P1798 Lymphosarcoma (subcutaneous) in CD2F1 (CDF1) mice. The conditions noted are these: endpoint: mean tumor weight, higher = larger tumour. On the procedure: The antitumor activity of compounds was measured in mice bearing transplantable tumors. Survival or tumor size were measured and the results are expressed as the measurement made in the treated group (T) divided by the measurement made in the vehicle treated control group (C). The tumor model used in this assay is P1798 Lymphosarcoma (subcutaneous) in CD2F1 (CDF1) mice

Where [1] appears, read: dose: 12.5 mg/kg/injection, schedule: Q01DX010 (ip), vehicle: saline.
Where [2] appears, read: dose: 25.0 mg/kg/injection, schedule: Q01DX010 (ip), vehicle: saline.
[3] abbreviates: dose: 50.0 mg/kg/injection, schedule: Q01DX010 (ip), vehicle: saline.
Setting [4] is: dose: 100.0 mg/kg/injection, schedule: Q01DX010 (ip), vehicle: saline.
Setting [5] is: dose: 25.0 mg/kg/injection, schedule: Q01DX010 (sc), vehicle: steriod suspending solution.
Setting [6] is: dose: 62.5 mg/kg/injection, schedule: Q01DX010 (ip), vehicle: saline.
[7] abbreviates: dose: 125.0 mg/kg/injection, schedule: Q01DX010 (ip), vehicle: saline.
[8] abbreviates: dose: 200.0 mg/kg/injection, schedule: Q01DX010 (ip), vehicle: saline.
Where [9] appears, read: dose: 250.0 mg/kg/injection, schedule: Q01DX010 (ip), vehicle: saline.
Where [10] appears, read: dose: 400.0 mg/kg/injection, schedule: Q01DX010 (ip), vehicle: saline.
Where [11] appears, read: dose: 500.0 mg/kg/injection, schedule: Q01DX010 (ip), vehicle: saline.
[12] abbreviates: dose: 0.63 mg/kg/injection, schedule: Q01DX010 (ip), vehicle: saline.
Setting [13] is: dose: 1.25 mg/kg/injection, schedule: Q01DX010 (ip), vehicle: saline.

“And” between values parts separate entries of the source, which are not always exact repeats. Equal entries are not always repeated.

On to `CS(=O)(=O)OCCC(=O)N1CCN(C(=O)CCOS(C)(=O)=O)CC1`, for which the T/C is 77 % of control under setting [1], 71 % of control under setting [2], 7 % of control under setting [3] and 4 % of control under setting [4].

As for `C[C@]12CC[C@H](OC3OC(CO)C(O)C(O)C3O)C[C@H]1CC[C@@H]1[C@@H]2CC[C@]2(C)[C@@H](C3=CCOC3=O)CC[C@]12O` (some centres not stated), the T/C (dose: 0.13 mg/kg/injection, schedule: Q01DX010 (ip), vehicle: saline) was 71 % of control and the T/C (dose: 0.25 mg/kg/injection, schedule: Q01DX010 (ip), vehicle: saline) is 96 % of control.

With `CCCCCC(=O)O[C@]1(C(C)=O)CC[C@H]2[C@@H]3CCC4=CC(=O)CC[C@]4(C)[C@H]3CC[C@@]21C`, the T/C was 110 % of control (dose: 250.0 mg/kg/injection, schedule: Q01DX010 (sc), vehicle: steriod suspending solution); 106 % of control (dose: 375.0 mg/kg/injection, schedule: Q01DX010 (sc), vehicle: steriod suspending solution); 114 % of control (dose: 500.0 mg/kg/injection, schedule: Q01DX010 (sc), vehicle: steriod suspending solution); 109 % of control (dose: 750.0 mg/kg/injection, schedule: Q01DX010 (sc), vehicle: steriod suspending solution).

Take `C[C@]12CCC(=O)C=C1CC[C@@H]1[C@@H]2CC[C@@]2(C)[C@H]1CC[C@]2(C)O`: the T/C is 91 % of control (dose: 12.5 mg/kg/injection, schedule: Q01DX010 (sc), vehicle: steriod suspending solution); 61 % of control under setting [5]; 90 % of control (dose: 50.0 mg/kg/injection, schedule: Q01DX010 (sc), vehicle: steriod suspending solution); 97 % of control (dose: 100.0 mg/kg/injection, schedule: Q01DX010 (sc), vehicle: steriod suspending solution).

In the case of `CCc1c(CC(=O)O)c2cc(C)ccc2n1Cc1ccc(Cl)cc1`, the T/C under setting [1] is 120 % of control, the T/C under setting [2] was 87 % of control and the T/C under setting [3] was 54 % of control.

For the compound `Cc1cn(C2OC(CO)C(O)C2O)c(=O)[nH]c1=O` (configuration not stated), the T/C reads like this: under setting [6], 97 % of control; under setting [4], 67 % of control; under setting [7], 96 % of control; under setting [8], 80 % of control; under setting [9], 72 % of control; under setting [10], 85 % of control. Moreover, the T/C by setting is: under setting [11], 69 % of control; (dose: 800.0 mg/kg/injection, schedule: Q01DX010 (ip), vehicle: saline) 75 % of control.

With `C[C@]12CC[C@H](O)C[C@@H]1CC[C@@H]1[C@@H]2C(=O)C[C@]2(C)C3=CC(=O)O[C@H]3C[C@@H]12`, the T/C (dose: 10.0 mg/kg/injection, schedule: Q01DX010 (sc), vehicle: steriod suspending solution) is 76 % of control and 83 % of control; the T/C (dose: 20.0 mg/kg/injection, schedule: Q01DX010 (sc), vehicle: steriod suspending solution) is 97 % of control; the T/C (dose: 40.0 mg/kg/injection, schedule: Q01DX010 (sc), vehicle: steriod suspending solution) is 87 % of control and 90 % of control; the T/C (dose: 80.0 mg/kg/injection, schedule: Q01DX010 (sc), vehicle: steriod suspending solution) was 78 % of control and 85 % of control.

For the compound `C1CN1c1nc(N2CC2)nc(N2CC2)n1`, the T/C is 114 % of control (dose: 0.06 mg/kg/injection, schedule: Q01DX010 (ip), vehicle: saline); 29 % of control and 37 % of control (dose: 0.5 mg/kg/injection, schedule: Q01DX010 (ip), vehicle: saline).

As for `O=C(NCCCC(NC(=O)OCc1ccccc1)C(=O)NCCCNCCCCNCCCNC(=O)C(CCCNC(=O)OCc1ccccc1)NC(=O)OCc1ccccc1)OCc1ccccc1` (configuration not stated), the T/C is 156 % of control under setting [12]; 91 % of control under setting [13]; 111 % of control (dose: 2.5 mg/kg/injection, schedule: Q01DX010 (ip), vehicle: saline).

For `COC1=C(N)C(=O)c2nc(-c3nc(C(=O)O)c(C)c(-c4ccc(OC)c(OC)c4O)c3N)ccc2C1=O`, the T/C is, setting by setting: (dose: 0.06 mg/kg/injection, schedule: Q01DX010 (ip), vehicle: other) 45 % of control; (dose: 0.09 mg/kg/injection, schedule: Q01DX010 (ip), vehicle: other) 48 % of control; (dose: 0.13 mg/kg/injection, schedule: Q01DX010 (ip), vehicle: other) 43 % of control; (dose: 0.2 mg/kg/injection, schedule: Q01DX010 (ip), vehicle: saline) 28 % of control.

For the compound `O=CN(O)CC(=O)O`, the T/C by setting is: under setting [6], 92 % of control and 67 % of control; under setting [9], 104 % of control and 108 % of control.

`O=c1cn[nH]c(=O)[nH]1`: the T/C is 111 % of control and 89 % of control under setting [6]; 97 % of control under setting [7]; 62 % of control and 80 % of control under setting [9]; 80 % of control under setting [11].

In the case of `CO[C@@H]1[C@@H](OC2OC(C)C(OC3CC(C)(O)C(OC(=O)CC(C)C)C(C)O3)C(N(C)C)C2O)[C@@H](CC=O)C[C@@H](C)C(=O)/C=C/C2O[C@H]2C[C@@H](C)OC(=O)C[C@H]1OC(C)=O` (some centres not stated), the T/C was 89 % of control under setting [3]; 105 % of control (dose: 75.0 mg/kg/injection, schedule: Q01DX010 (ip), vehicle: saline); 90 % of control under setting [4]; 90 % of control (dose: 150.0 mg/kg/injection, schedule: Q01DX010 (ip), vehicle: saline); 95 % of control under setting [8]; 21 % of control (dose: 300.0 mg/kg/injection, schedule: Q01DX010 (ip), vehicle: saline). Besides, the T/C under setting [10] is 71 % of control.

As to `CC(=O)OC1C=CC(=O)OC1C1OC1C` (configuration not stated), the T/C (dose: 4.0 mg/kg/injection, schedule: Q01DX011 (ip), vehicle: saline) was 53 % of control; the T/C (dose: 6.0 mg/kg/injection, schedule: Q01DX011 (ip), vehicle: saline) was 72 % of control; the T/C (dose: 9.0 mg/kg/injection, schedule: Q01DX011 (ip), vehicle: saline) is 62 % of control; the T/C (dose: 13.0 mg/kg/injection, schedule: Q01DX011 (ip), vehicle: saline) was 56 % of control.

With `CC(=O)OC(C)(C)/C=C/C(=O)[C@](C)(O)[C@H]1[C@H](O)C[C@@]2(C)[C@@H]3CC=C4[C@@H](C=C(O)C(=O)C4(C)C)[C@]3(C)C(=O)C[C@]12C`, the T/C is 100 % of control (dose: 0.15 mg/kg/injection, schedule: Q01DX009 (ip), vehicle: saline with Tween-80); 84 % of control (dose: 0.3 mg/kg/injection, schedule: Q01DX009 (ip), vehicle: saline with Tween-80); 84 % of control (dose: 0.4 mg/kg/injection, schedule: Q01DX011 (ip), vehicle: carboxymethylcellulose (CMC)); 92 % of control (dose: 0.6 mg/kg/injection, schedule: Q01DX009 (ip), vehicle: saline with Tween-80); 95 % of control (dose: 0.8 mg/kg/injection, schedule: Q01DX011 (ip), vehicle: carboxymethylcellulose (CMC)); 115 % of control (dose: 1.6 mg/kg/injection, schedule: Q01DX011 (ip), vehicle: carboxymethylcellulose (CMC)). Besides, for the setting “dose: 3.2 mg/kg/injection, schedule: Q01DX011 (ip), vehicle: carboxymethylcellulose (CMC)”, the T/C is 47 % of control.

On to `CCCNc1ncnc2[nH]ncc12`, for which the T/C (dose: 6.25 mg/kg/injection, schedule: Q01DX010 (ip), vehicle: saline) was 92 % of control and 95 % of control; the T/C under setting [1] was 72 % of control; the T/C under setting [2] is 25 % of control.

As to `C[C@]12CC[C@@H]3c4ccc(O)cc4CC[C@H]3[C@@H]1C[C@@H](O)[C@@H]2O`, the T/C (dose: 6.25 mg/kg/injection, schedule: Q01DX010 (sc), vehicle: steriod suspending solution) is 73 % of control and 86 % of control; the T/C under setting [5] is 69 % of control and 86 % of control.

Consider `Nc1ncnc2c1ncn2C1OC(COCc2ccccc2)C(OCc2ccccc2)C1OCc1ccccc1` (configuration not stated), for which the T/C was 107 % of control and 115 % of control (dose: 10.0 mg/kg/injection, schedule: Q01DX010 (ip), vehicle: saline); 92 % of control and 109 % of control (dose: 20.0 mg/kg/injection, schedule: Q01DX010 (ip), vehicle: saline); 114 % of control and 89 % of control (dose: 40.0 mg/kg/injection, schedule: Q01DX010 (ip), vehicle: saline); 93 % of control and 104 % of control (dose: 80.0 mg/kg/injection, schedule: Q01DX010 (ip), vehicle: saline).

With `Nc1ncnc2c1ccn2C1OC(CO)C(O)C1O` (configuration not stated), the T/C is, setting by setting: (dose: 0.32 mg/kg/injection, schedule: Q01DX010 (ip), vehicle: saline) 97 % of control; under setting [12], 101 % of control; under setting [13], 84 % of control.

`Cc1cc2nc3c(=O)[nH]c(=O)nc-3n(CC(O)C(O)C(O)C(O)CO)c2cc1C` (configuration not stated): the T/C is, setting by setting: under setting [3], 86 % of control; under setting [4], 88 % of control; under setting [8], 58 % of control.
